Read-outs that look alike come from different tables or passages of the source.
Key:
[1] = test system: T1, non-glycated (HSA) and glycated (gHSAFRC) human serum albumin, Sudlow's site I and II; test: Binding of fluorescent site-marker probes to glycated versus non-glycated albumin (fluorimetric titration)
T1 construct: human serum albumin (HSA, Lot No. 8234H) with fatty acids (fraction V) was purchased from MP Biomedicals LLC; purchased MP Biomedicals LLC (Illkirch, France) Lot No. 8234H (a lot number; no catalogue number given)

[2] = test system: plasma protein; settings: cited from earlier work
[3] = albumin 5 × 10^−6 mol∙L^−1 titrated with probe, 37 °C, Figure 7

| SMILES | probe fluorescence / binding with gHSAFRC compared with HSA [1, 3] | also measured |
| --- | --- | --- |
| CN(C)c1cccc2c(S(=O)(=O)N3CCC[C@H]3C(=O)O)cccc12 [dPro, N-dansyl-L-proline] | stronger for glycated than non-modified albumin |  |
| CN(C)c1cccc2c(S(=O)(=O)N[C@@H](CCC(N)=O)C(=O)O)cccc12 [dGln, dansyl-L-glutamine] | stronger for glycated than non-modified albumin |  |
| CCCCc1nc(Cl)c(CO)n1Cc1ccc(-c2ccccc2-c2nn[nH]n2)cc1 [LOS, (2-butyl-4-chloro-1-{[2′-(1H-tetrazol-5-yl)-4-biphenylyl]methyl}-1H-imidazol-5-yl)methanol] |  | bound with plasma protein [2]: 98.6–98.8% |
| CC(=O)CC(c1ccccc1)c1c(O)c2ccccc2oc1=O (centres unmarked) [WAR, warfarin] |  | probe fluorescence / binding with gHSAFRC compared with HSA [1]: stronger than with non-glycated albumin |
| CN(C)c1cccc2c(S(N)(=O)=O)cccc12 [DNSA, 5-dimethylaminonaphthalene-1-sulfonamide] | no significant difference in the fluorescence intensity |  |
